Data taken from US7402602B2 (priority 2001, dated 2008).

SMILES | melting point
CCCC(CCC)c1nc(-c2ccc(F)cc2)c[nH]1 | 217.5 °C
CC(C)Cc1ccc(Cc2nc(-c3ccc(-c4ccccc4)cc3)c[nH]2)cc1 [Example 1, 4-(1,1′-biphenyl-4-yl)-2-(4-isobutylbenzyl)-1H-imidazole] | 160 to 161 °C
CCCCCCc1nc(-c2ccc(CC(C)C)cc2)c[nH]1 [Example 2, 2-hexyl-4-(4-isobutylphenyl)-1H-imidazole] | 89 to 90 °C
c1ccc(CCCc2nc(-c3ccccc3)c[nH]2)cc1 [Example 3, 4-phenyl-2-(3-phenylpropyl)-1H-imidazole] | 106 to 108 °C
CCCCCC(CCCCC)c1nc(-c2ccccc2)c[nH]1 [Example 4, 2-(1-pentylhexyl)-4-phenyl-1H-imidazole] | 111.2 °C
CCCCCC(CCCCC)c1nc(-c2ccc(F)cc2)c[nH]1 [Example 5, 4-(4-fluorophenyl)-2-(1-pentylhexyl)-1H-imidazole] | 134.6 °C
Fc1ccc(-c2c[nH]c(CC3CCCCC3)n2)cc1 [Example 6, 2-(cyclohexylmethyl)-4-(4-fluorophenyl)1H-imidazole] | 68 to 70 °C
CCCCCC(CCCCC)c1nc(-c2ccc(-c3ccccc3)cc2)c[nH]1 [Example 7, 4-(1,1′-biphenyl-4-yl)-2-(1-pentylhexyl)-1H-imidazole] | 173.6 °C
CCCC(CCC)c1nc(-c2ccc(C(C)(C)C)cc2)c[nH]1 [Example 8, 4-(4-tert-butylphenyl)-2-(1-propylbutyl)-1H-imidazole] | 200 to 202 °C
CCCC(CCC)c1nc(-c2ccc(-c3ccc(Br)cc3)cc2)c[nH]1 [Example 10, 4-(4′-bromo-1,1′-biphenyl-4-yl)-2-(1-propylbutyl)-1H-imidazole] | 182.8 °C
c1ccc(-c2ccc(-c3c[nH]c(CCC4CCCCC4)n3)cc2)cc1 [Example 11, 4-(1,1′-biphenyl-4-yl)-2-(2-cyclohexylethyl)-1H-imidazole] | 104.9 °C
CCCCCCc1nc(-c2ccc(-c3ccccc3)cc2)c[nH]1 [Example 12, 4-(1,1′-biphenyl-4-yl)-2-hexyl-1H-imidazole] | 104.8 °C
CC(C)Cc1ccc(C(C)c2nc(-c3ccc(-c4ccccc4)cc3)c[nH]2)cc1 (stereo not drawn) [Example 13, 4-(1,1′-biphenyl-4-yl)-2-[1-(4-isobutylphenyl)ethyl]-1H-imidazole] | 172.7 °C
CC(C)Cc1ccc(C(C)c2nc(-c3ccc(F)cc3)c[nH]2)cc1 (stereo not drawn) [Example 14, 4-(4-fluorophenyl)-2-[1-(4-isobutylphenyl)ethyl]-1H-imidazole] | 116 °C
CC(c1ccccc1)c1nc(-c2ccc(-c3ccccc3)cc2)c[nH]1 (stereo not drawn) [Example 15, 4-(1,1′-biphenyl-4-yl)-2-(1-phenylethyl)-1H-imidazole] | 165 to 166 °C
CCCC(CCC)c1nc(-c2ccc(-c3ccccc3)cc2)c[nH]1 [Example 16, 4-(1,1′-biphenyl-4-yl)-2-(1-propylbutyl)-1H-imidazole] | 197 to 198 °C
c1ccc(-c2ccc(-c3c[nH]c(CC4CCCCC4)n3)cc2)cc1 [Example 17, 4-(1,1′-biphenyl-4-yl)-2-(cyclohexylmethyl)-1H-imidazole] | 104 to 105 °C
c1ccc(-c2ccc(-c3c[nH]c(CCCC4CCCCC4)n3)cc2)cc1 [Example 18, 4-(1,1′-biphenyl-4-yl)-2-(3-cyclohexylpropyl)-1H-imidazole] | 118 to 119 °C
